Experimental data reported in patent US11420962B2, “Indene derivatives useful in treating pain and inflammation” (TARO PHARMACEUTICALS INC., priority 2018, dated 2022).

Experiments:
Mice (male, C57Bl/6) [1] = test: Pulmonary LPS challenge assay in mice; assay type: in vivo; settings: 30 mg/kg, oral gavage once daily for three days; BALF 24 h post LPS
Method: Mice (male, C57Bl/6) were acclimatized for a period of about 7 days before initiation of the experiment and randomized on the day prior to treatment. Mice received vehicle or representative test compounds of the invention (i.e., test compounds) once daily for three days by oral gavage on Day −2, Day −1 and on Day 0 (the last dose being 1 h prior to LPS administration). One group of mice received the reference standard, dexamethasone, once, IP on Day 0 at 1 h prior to LPS administration. Pulmonary inflammation was induced in all animals except the sham control animals by intratracheal instillation of 20 μg LPS per animal in 50 μl saline. Sham control animals received 50 μl saline alone.
Twenty-four hours post LPS administration, animals were euthanized and the trachea was cannulated. Cold Hanks Balanced Salt Solution (HBSS) (SIGMA; Catalogue number: H1387), pH 7.2, was infused into the lungs and bronchoalveolar lavage fluid (BALF) was collected.
Total leukocyte counts were performed from the collected BALF using a mini flow-cytometer and differential counts were performed in cytospin smears stained with Leishman's staining manually. ELISA kits were used for quantification of cytokines in the BALF (TNFα, IL-1β, IL-6 and KC). Reagents, samples and standards were prepared as per kit manual. Total protein analysis in BALF samples were performed using the Biorad protein assay reagent. […]

[2] = system: Rats (female, Sprague-Dawley); test: Rat ketamine cystitis (visceral pain); assay type: in vivo
Method: Rats (female, Sprague-Dawley) received daily intraperitoneal injections of saline (sham control) or ketamine (50 mg/kg) for 14 days. […] Referred mechanical sensitivity was assessed on Day 7 and Day 14 by application of a series of von Frey filaments to the lower abdomen and the nociceptive threshold was scored.

[3] = system: Rats (male, Sprague-Dawley); test: Spinal nerve ligation (neuropathic pain); assay type: in vivo
Text: Rats (male, Sprague-Dawley) were anaesthetized and placed in a prone position and the left paraspinal muscles were separated from the spinous processes at the L6-S2 levels. The L6 transverse process was carefully removed to visually identify the L4-L6 spinal nerves. The left L5 spinal nerves were isolated and tightly ligated with 6-0 silk thread. The skin was sutured to close the open tissue and animals were allowed to recover for 1 week before pain assessment. Basal readings for mechanical allodynia and thermal hyperalgesia were performed using a dynamic plantar aesthesiometer and plantar test surface, respectively, before surgery. On Day 7 following surgery, mechanical allodynia and thermal hyperalgesia were assessed and animals were randomized into treatment groups based on these baseline readings. […] Thermal hyperalgesia and mechanical allodynia were tested at 0, 60 and 120 minutes post administration of compounds on Days 7 and 14.

Mice (male, C57Bl/6) [4] = test: Bleomycin lung fibrosis; assay type: in vivo
Text: Mice (male, C57BL/6) were randomized into treatment groups and fibrosis was induced by intratracheal administration of bleomycin. Treatment with representative compounds of the invention (i.e., test compounds) or reference standard (pirfenidone) was initiated on Day −1 and administered daily unto Day 7 or Day 21. For groups undergoing bronchoalveolar lavage (BAL), the trachea was cannulated and infused with ice cold Hank's Balanced Salt Solution (HBSS, pH 7.2). The collected lavage fluid was analyzed for cell numbers (total and differential counts) and levels of soluble TGFβ and collagen. For other groups, the lungs were either snap-frozen or formalin-fixed for further analyses.

[5] = Metabolism by human liver microsomes; assay type: in vitro ADME; settings: Table 8; 10 µM, in the presence of NADPH, 1 mg/mL protein
Summary of the method: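 Compound at 10 μM preincubated 10 min at 37 °C with human liver microsomes (1 mg/mL protein), 100 mM Tris HCl pH 7.5; started with 1 mM NADPH, run 60 min. Percent remaining at 60 min versus 0-time by LC-MS/MS analyte/internal-standard ratio, scored in bands.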

C=C1CC[C@H]2[C@H](CN)[C@@H]([C@@]3(C)Cc4cn[nH]c4C[C@@H]3CO)CC[C@]12C [Ia-1, ((5R,6S)-5-((3aS,4R,5S,7aS)-4-(aminomethyl)-7a-methyl-1-methyleneoctahydro-1H-inden-5-yl)-5-methyl-4,5,6,7-tetrahydro-1H-indazol-6-yl)methanol]
% protection from neutrophilia (Mice (male, C57Bl/6) [1]): 44%
increase in the nociceptive threshold (relative to unchallenged) ([2]; 1.0 mg/kg dose, PO, QD): 61%
increase in the nociceptive threshold (relative to unchallenged) ([2]; 3.0 mg/kg dose, PO, QD): 69%
increase in the nociceptive threshold (relative to unchallenged) ([2]; 10 mg/kg dose): 85%
overall increase in paw withdrawal threshold as compared to the vehicle ([3]; 3 mg/kg): 48%
overall increase in paw withdrawal threshold as compared to the vehicle ([3]; 10 mg/kg): 62%
overall increase in paw withdrawal threshold as compared to the vehicle ([3]; 30 mg/kg): 82%
reduction in BAL macrophages as compared to the vehicle (Mice (male, C57Bl/6) [4]; Day 7, 3.0 mg/kg dose): 41%
reduction in BAL macrophages as compared to the vehicle (Mice (male, C57Bl/6) [4]; Day 7, 30 mg/kg dose): 35%
reduction in fibrosis (Mice (male, C57Bl/6) [4]; Day 14, 30 mg/kg dose (first mention)): 31%
reduction in fibrosis (Mice (male, C57Bl/6) [4]; Day 14, 30 mg/kg dose (second mention)): 34%
Scoring (% of drug remaining after 60 minutes, PDR60) [5]: B (a PDR^60 of 61 to 80%)
